Reference: publication PMC10599993, “The PTPN2/PTPN1 inhibitor ABBV-CLS-484 unleashes potent anti-tumour immunity” (Nature, 2023)

How the values were obtained:
Assay in all cases: biochemical
Parameters in all cases: Kinase selectivity panel, IC50 of AC484 (Supplementary Table 1)
[1] = target: T1, PKA (Homo sapiens, UniProt P17612)
T1 construct: gene PRKACA
Experimental: (§1) Wide-range phosphatase, kinase and preclinical safety pharmacology off-target activity screens were conducted at Eurofins (Extended Data Table 5 and Supplementary Tables 1 and 2). A small phosphatase panel was developed at AbbVie to assess IC50 values on select phosphatases. The following enzymes used in the phosphatase selectivity panel were purchased from Eurofins: PTPN1 (PTP1B; 14–621), PTPN2 (TC-PTP; 14–646), PTPN9 (14–592), SHP1 (14–591) and SHP2 (14–622). The catalytic activity of the phosphatase was monitored using the small-molecule substrate DiFMUP (ThermoFisher) in a fluorescence assay format. In brief, the phosphatase reactions were performed at room temperature in the following assay buffer: 50 mM HEPES, pH 7.2, 100 mM NaCl, 1 mM EDTA, 0.005% Tween-20 and 5 mM TCEP. Each phosphatase was incubated with increasing concentrations of AC484 for 5 min, after which the substrate DiFMUP was added and incubated at 25 °C for 30 min. The final concentration of the enzyme and substrate was maintained at 0.5 nM and 5 μM, respectively, in all the assays. The reaction was then quenched by the addition of a 100 μM solution of bpV(Phen) (Enzo Life Sciences). The fluorescence signal was monitored using an Envision microplate reader (Perkin-Elmer) using excitation and emission wavelengths of 340 nm and 450 nm, respectively. The dose–response curves for the inhibitors were analysed using normalized IC50 regression curve fitting with control-based normalization. Supplementary file 41586_2023_6575_MOESM3_ESM.xlsx: Supplementary Table 1 AC484 kinase selectivity screen.

[2] = target: BTK (Homo sapiens, UniProt Q06187)
Experimental: as §1

[3] = target: TNK2 (Homo sapiens, UniProt Q07912)
Experimental: as §1

[4] = target: Plk4 (Homo sapiens, UniProt O00444)
Experimental: as §1

[5] = target: T2, PKCdelta (Homo sapiens, UniProt Q05655)
T2 construct: gene PRKCD
Experimental: as §1

[6] = target: T3, PKAc beta (Homo sapiens, UniProt P22694)
T3 construct: gene PRKACB
Experimental: as §1

[7] = target: Nek2 (Homo sapiens, UniProt P51955)
Experimental: as §1

Measured: IC50

Sequence of Plk4 (O00444 whole entry): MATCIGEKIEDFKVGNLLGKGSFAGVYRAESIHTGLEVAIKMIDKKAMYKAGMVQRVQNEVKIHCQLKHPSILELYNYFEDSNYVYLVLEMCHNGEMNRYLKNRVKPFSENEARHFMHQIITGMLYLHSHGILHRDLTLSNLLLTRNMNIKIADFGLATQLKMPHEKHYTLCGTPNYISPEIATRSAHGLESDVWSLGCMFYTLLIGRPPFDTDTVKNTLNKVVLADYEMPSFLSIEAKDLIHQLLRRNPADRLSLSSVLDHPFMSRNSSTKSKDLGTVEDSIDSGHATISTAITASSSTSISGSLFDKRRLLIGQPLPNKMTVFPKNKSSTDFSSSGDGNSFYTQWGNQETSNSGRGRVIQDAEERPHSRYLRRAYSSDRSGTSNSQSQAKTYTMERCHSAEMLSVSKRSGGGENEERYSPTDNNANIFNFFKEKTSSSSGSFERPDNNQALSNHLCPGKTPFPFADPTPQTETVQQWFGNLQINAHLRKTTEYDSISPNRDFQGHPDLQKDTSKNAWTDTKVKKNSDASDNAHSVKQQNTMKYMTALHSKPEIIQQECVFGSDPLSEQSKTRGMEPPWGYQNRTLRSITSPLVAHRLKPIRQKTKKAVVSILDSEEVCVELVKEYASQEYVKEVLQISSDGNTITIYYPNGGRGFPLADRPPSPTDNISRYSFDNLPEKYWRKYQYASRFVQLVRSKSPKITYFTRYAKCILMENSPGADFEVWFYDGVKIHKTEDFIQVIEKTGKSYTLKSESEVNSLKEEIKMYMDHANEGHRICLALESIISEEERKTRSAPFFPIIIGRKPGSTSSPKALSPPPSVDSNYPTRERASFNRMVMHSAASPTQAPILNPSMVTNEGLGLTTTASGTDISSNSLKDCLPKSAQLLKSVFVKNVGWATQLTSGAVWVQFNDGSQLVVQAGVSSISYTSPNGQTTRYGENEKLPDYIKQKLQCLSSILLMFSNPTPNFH
Sequence of TNK2 (Q07912 whole entry): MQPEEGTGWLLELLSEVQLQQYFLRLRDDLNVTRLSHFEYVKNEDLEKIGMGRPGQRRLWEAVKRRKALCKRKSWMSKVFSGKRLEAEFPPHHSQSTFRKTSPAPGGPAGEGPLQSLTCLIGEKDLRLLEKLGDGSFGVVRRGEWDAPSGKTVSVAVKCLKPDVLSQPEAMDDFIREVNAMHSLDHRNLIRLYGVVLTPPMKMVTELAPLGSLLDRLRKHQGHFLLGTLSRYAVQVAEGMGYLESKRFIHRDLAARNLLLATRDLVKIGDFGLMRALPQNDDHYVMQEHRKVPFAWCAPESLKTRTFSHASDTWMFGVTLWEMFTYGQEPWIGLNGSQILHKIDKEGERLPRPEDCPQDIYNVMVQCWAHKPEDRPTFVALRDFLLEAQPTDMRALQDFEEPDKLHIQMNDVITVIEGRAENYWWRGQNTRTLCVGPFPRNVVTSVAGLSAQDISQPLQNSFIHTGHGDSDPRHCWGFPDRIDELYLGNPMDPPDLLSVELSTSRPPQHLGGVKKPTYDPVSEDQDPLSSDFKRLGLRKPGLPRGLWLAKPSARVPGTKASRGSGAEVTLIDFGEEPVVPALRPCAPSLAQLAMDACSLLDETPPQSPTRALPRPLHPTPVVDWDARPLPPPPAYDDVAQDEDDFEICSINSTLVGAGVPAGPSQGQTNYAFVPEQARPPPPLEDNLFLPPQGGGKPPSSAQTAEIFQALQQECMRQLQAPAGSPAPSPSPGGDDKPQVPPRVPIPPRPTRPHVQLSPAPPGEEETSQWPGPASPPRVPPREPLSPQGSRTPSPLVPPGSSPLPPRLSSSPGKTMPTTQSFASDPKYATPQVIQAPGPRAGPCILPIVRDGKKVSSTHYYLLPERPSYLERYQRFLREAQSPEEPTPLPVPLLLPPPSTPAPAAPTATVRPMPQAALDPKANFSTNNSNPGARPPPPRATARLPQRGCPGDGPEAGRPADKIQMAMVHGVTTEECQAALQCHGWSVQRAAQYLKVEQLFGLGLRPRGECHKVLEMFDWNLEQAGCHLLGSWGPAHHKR
T2 sequence (Q05655 whole entry): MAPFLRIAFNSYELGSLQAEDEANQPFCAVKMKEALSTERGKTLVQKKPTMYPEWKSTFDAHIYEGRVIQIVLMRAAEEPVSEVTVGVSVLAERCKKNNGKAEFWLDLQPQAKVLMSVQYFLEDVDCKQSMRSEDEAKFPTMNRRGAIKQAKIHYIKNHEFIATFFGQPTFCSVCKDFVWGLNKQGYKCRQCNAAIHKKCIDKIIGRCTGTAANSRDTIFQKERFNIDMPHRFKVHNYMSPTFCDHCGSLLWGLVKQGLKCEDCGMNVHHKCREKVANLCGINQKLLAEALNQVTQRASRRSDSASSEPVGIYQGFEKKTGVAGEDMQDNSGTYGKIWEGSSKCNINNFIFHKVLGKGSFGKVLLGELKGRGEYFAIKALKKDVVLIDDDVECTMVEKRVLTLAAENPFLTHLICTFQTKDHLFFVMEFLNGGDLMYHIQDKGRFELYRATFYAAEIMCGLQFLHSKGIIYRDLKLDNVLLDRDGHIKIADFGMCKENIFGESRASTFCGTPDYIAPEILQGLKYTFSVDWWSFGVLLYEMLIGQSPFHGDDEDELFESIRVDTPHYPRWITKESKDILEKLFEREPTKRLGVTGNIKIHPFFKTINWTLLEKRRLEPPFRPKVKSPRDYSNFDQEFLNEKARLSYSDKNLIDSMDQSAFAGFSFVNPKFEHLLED
Sequence of Nek2 (P51955 whole entry): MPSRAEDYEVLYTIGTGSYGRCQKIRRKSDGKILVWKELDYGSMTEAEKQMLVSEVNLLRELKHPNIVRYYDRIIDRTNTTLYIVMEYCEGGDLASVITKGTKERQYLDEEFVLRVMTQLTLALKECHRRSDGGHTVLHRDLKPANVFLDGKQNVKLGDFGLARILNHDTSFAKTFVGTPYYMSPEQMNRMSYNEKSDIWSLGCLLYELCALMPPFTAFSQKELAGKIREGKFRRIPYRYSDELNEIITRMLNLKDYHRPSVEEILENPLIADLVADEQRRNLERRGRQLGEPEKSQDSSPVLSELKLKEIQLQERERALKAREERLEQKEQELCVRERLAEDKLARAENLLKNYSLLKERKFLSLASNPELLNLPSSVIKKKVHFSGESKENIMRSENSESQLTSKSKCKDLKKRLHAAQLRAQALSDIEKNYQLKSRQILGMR
Sequence of BTK (Q06187 whole entry): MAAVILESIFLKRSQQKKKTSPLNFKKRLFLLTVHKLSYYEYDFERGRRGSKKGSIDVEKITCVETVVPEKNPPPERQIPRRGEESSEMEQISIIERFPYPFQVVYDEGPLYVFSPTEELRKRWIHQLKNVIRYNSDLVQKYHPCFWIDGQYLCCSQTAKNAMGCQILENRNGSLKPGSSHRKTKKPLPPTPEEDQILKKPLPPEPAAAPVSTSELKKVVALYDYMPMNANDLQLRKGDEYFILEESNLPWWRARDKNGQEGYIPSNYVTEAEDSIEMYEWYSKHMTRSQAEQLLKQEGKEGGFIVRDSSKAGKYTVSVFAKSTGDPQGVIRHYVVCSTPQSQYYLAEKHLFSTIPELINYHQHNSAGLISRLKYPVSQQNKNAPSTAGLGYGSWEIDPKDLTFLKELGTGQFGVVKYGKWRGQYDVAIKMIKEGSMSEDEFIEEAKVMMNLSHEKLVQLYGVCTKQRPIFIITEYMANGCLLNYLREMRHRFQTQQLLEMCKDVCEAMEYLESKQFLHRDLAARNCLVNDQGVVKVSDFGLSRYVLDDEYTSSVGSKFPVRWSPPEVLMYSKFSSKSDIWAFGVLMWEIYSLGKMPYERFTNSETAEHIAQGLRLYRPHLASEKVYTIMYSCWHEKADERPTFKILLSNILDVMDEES

CC(C)CCN[C@@H]1CCc2cc(O)c(N3CC(=O)NS3(=O)=O)c(F)c2C1 [AC484, ABBV-CLS-484]
> 10 µM: all assays above
